Results: patent US20250304623A1, “PEPTIDES FOR INTRACELLULAR DELIVERY” (UNIVERSIDADE DE SANTIAGO DE COMPOSTELA, priority 2022, published 2025)
*: point of attachment. NHNH2 = NN*

Legend:
Assay type in all cases: cell-based
Hek293 cells [1] = experiment: EGFP mRNA delivery, robotic library screening, Hek293
Experimental: Cells were seeded in a 96 well plate the day before the experiment at a concentration of 50,000 cell/mL (100 μL/w) in DMEM+10% FBS+1% Gln-Abt. For robotic library screening, the delivery of EGFP-mRNA (from TriLink, fully substituted with 5-methoxyuridine, capped and polyadenylated; TriLink, CleanCap® EGFP mRNA (5moU), ref. L-7201) in six different cell lines was performed. Amphiphilic molecule stock solutions were prepared in DMSO as described above and diluted in DMEM to afford a range of concentrations. The solutions of EGFP-mRNA/amphiphilic molecule complexes were freshly prepared prior to the transfection experiments. 35 μL of the corresponding amphiphile were added to 10 μL of a solution of EGFP-mRNA at 10 ng/μL in DMEM. The mixture was shaken for 30 min at room temperature before the addition to the cells. The cell medium was aspirated, and cells were washed with PBS twice. Cells were covered with 39 μL of DMEM and 11 μL of the complex's solution were added to the cells and incubated for 4 h (final concentration of peptide=2.5, 5 and 10 μM; final concentration of EGFP-mRNA=25 ng/well). After the incubation, the medium was replaced by 100 μL of fresh DMEM supplemented with 10% FBS. The total EGFP fluorescence was quantified after 72 h in a well plate reader. Amphiphile transfection efficiency was compared and normalized to Lipofectamine® MessengerMax efficiency (value of 1 in Tables 1-5 and 7; double underlined numbers). All experiments were done in triplicate.
(§1) Tables 1-7: RLuc (pDNA) or EGFP (mRNA) expression levels were normalized to Lipofectamine reagents (value=1) and expressed as fold-times signal increase. In the case of siRNA, the siRNA treated cells fluorescence was compared with siMOCK control fluorescence, while Cas9-RNP mediated knockout was measured against the fluorescence of untreated cells. In both siRNA and Cas9-RNP, values are expressed as % fluorescence reduction. Amphiphile concentration was 5 μM in all cases. All experiments were performed in triplicate.
Tables 14-19 show the mean (triplicates) fluorescence intensity measured after the transfection of EGFP mRNA by different amphiphiles at different concentrations in a variety of cell lines. Background fluorescence values, accounted by untreated control cells, were subtracted for processing.

Hek293 cells [2] = experiment: RLuc pDNA delivery, robotic library screening, Hek293
HepG2 cells = experiment: RLuc pDNA delivery, robotic library screening, HepG2
Experimental: Cells were seeded in a 96 well plate the day before the experiment at a concentration of 60,000 cell/mL (100 μL/w) in DMEM+10% FBS+1% Gln-Abt. For robotic library screening, the delivery of pDNA encoding for the expression of Renilla luciferase gene (RLuc, pRL-CMV (Promega, #E2261)) in six different cell lines was performed. Amphihilic molecule stock solutions in DMSO were diluted with DMEM and freshly mixed with pDNA stock solutions in DMEM prior to transfection experiments, to afford several complexes at different amphiphile concentration (2-10 μM) while maintaining a constant final pDNA concentration of 2 ng/μL. The mixture was shaken for 30 min at room temperature before the addition to the cells. The cell medium was aspirated, and cells were washed twice with PBS. Finally, 50 μL of the complex's solution were added to the cells and incubated for 4 h. After the incubation, the medium was replaced by 100 μL of fresh DMEM supplemented with 10% FBS. 72 hours after transfection the DMEM was removed, cells were washed once with HBSS and 90 μL of HBSS were added to each well. Cells were incubated at 37° C. for 30 minutes. Then basal luminescence levels were read in a plate reader. Immediately, 10 μL of coelenterazine h in HBSS were added to each well (5 μM final concentration) and cells were incubated at 37° C. for 10 minutes. Finally, the total luminescence measurement of the plates was performed. Amphiphile transfection efficiency was compared and normalized to Lipofectamine® 2000 efficiency (value of 1 in Tables 1-5 and 7; bold numbers). All experiments were done in triplicate.
as §1
Tables 8-13 show the mean (triplicates) luminescent intensity (RLU) measured after the transfection of RLuc pDNA by different amphiphiles at different concentrations in a variety of cell lines. Background luminescence values, accounted by untransfected control cells, were subtracted for processing.

Substance	mean luminescent intensity (RLuc pDNA) (Hek293 cells [2]; Dodecanal, 10 μM)	mean luminescent intensity (RLuc pDNA) (Hek293 cells [2]; Dodecanal, 15 μM)	mean luminescent intensity (RLuc pDNA) (HepG2 cells; Dodecanal, 10 μM)	mean luminescent intensity (RLuc pDNA) (HepG2 cells; Dodecanal, 15 μM)	mean luminescent intensity (RLuc pDNA) (HepG2 cells; Myristoleyl, 5 μM)	mean luminescent intensity (RLuc pDNA) (HepG2 cells; Myristoleyl, 10 μM)	mean luminescent intensity (RLuc pDNA) (HepG2 cells; Myristoleyl, 15 μM)	mean fluorescence intensity (EGFP mRNA) (Hek293 cells [1]; Palmitoleyl, 5 μM)	mean fluorescence intensity (EGFP mRNA) (Hek293 cells [1]; Petroselinyl, 2.5 μM)	mean fluorescence intensity (EGFP mRNA) (Hek293 cells [1]; Petroselinyl, 5 μM)	mean fluorescence intensity (EGFP mRNA) (Hek293 cells [1]; Petroselinyl, 10 μM)	mean luminescent intensity (RLuc pDNA) (Hek293 cells [2]; Palmitoleyl, 5 μM)	mean luminescent intensity (RLuc pDNA) (Hek293 cells [2]; Palmitoleyl, 10 μM)	mean luminescent intensity (RLuc pDNA) (Hek293 cells [2]; Palmitoleyl, 15 μM)	mean luminescent intensity (RLuc pDNA) (Hek293 cells [2]; Petroselinyl, 5 μM)	mean luminescent intensity (RLuc pDNA) (Hek293 cells [2]; Petroselinyl, 10 μM)	mean luminescent intensity (RLuc pDNA) (Hek293 cells [2]; Petroselinyl, 15 μM)	other results
Ac-RK*LRRK*L-NH2 (Ac-RK(NHNH2)LRRK(NHNH2)L-NH2; not fully specified; printed as Ac-RK*LRRK*L-NH2; also: K*2,K*6: native or modified lysine (ε-amide to a linker)) [Peptide 7.2]	8723 RLU	11358 RLU	4114 RLU	1202 RLU	11364 RLU	23772 RLU	25742 RLU	–	–	–	–	–	–	–	–	–	–	mean fluorescence intensity (EGFP mRNA) (Hek293 cells [1]; Dodecanal, 2.5 μM): 251; mean fluorescence intensity (EGFP mRNA) (Hek293 cells [1]; Dodecanal, 5 μM): 71; mean fluorescence intensity (EGFP mRNA) (Hek293 cells [1]; Dodecanal, 10 μM): 648; mean fluorescence intensity (EGFP mRNA) (Hek293 cells [1]; Myristoleyl, 2.5 μM): 2550; mean fluorescence intensity (EGFP mRNA) (Hek293 cells [1]; Myristoleyl, 5 μM): 1729; mean fluorescence intensity (EGFP mRNA) (Hek293 cells [1]; Myristoleyl, 10 μM): 591; mean luminescent intensity (RLuc pDNA) (Hek293 cells [2]; Myristoleyl, 5 μM): 5382 RLU; mean luminescent intensity (RLuc pDNA) (Hek293 cells [2]; Myristoleyl, 10 μM): 24464 RLU; mean luminescent intensity (RLuc pDNA) (Hek293 cells [2]; Myristoleyl, 15 μM): 8475 RLU
Ac-RK*LRRK*LRK*-NH2 (Ac-RK(NHNH2)LRRK(NHNH2)LRK(NHNH2)-NH2; not fully specified; printed as Ac-RK*LRRK*LRK*-NH2; also: K*2,K*6,K*9: native or modified lysine (ε-amide to a linker)) [Peptide 9.3]	71221 RLU	33244 RLU	25099 RLU	21420 RLU	57891 RLU	244850 RLU	286208 RLU	1665	1364	4636	643	−143 RLU	−284 RLU	3126 RLU	−1091 RLU	−1142 RLU	147 RLU	mean fluorescence intensity (EGFP mRNA) (Hek293 cells [1]; Oleyl, 2.5 μM): 1416; mean fluorescence intensity (EGFP mRNA) (Hek293 cells [1]; Oleyl, 5 μM): 2885; mean fluorescence intensity (EGFP mRNA) (Hek293 cells [1]; Oleyl, 10 μM): 466; mean fluorescence intensity (EGFP mRNA) (Hek293 cells [1]; Palmitoleyl, 10 μM): 1394; mean luminescent intensity (RLuc pDNA) (Hek293 cells [2]; Oleyl, 15 μM): 4792 RLU; mean luminescent intensity (RLuc pDNA) (HepG2 cells; Petroselinyl, 15 μM): 50057 RLU
Ac-RRHK*RLK*RRLK*RL-NH2 (Ac-RRHK(NHNH2)RLK(NHNH2)RRLK(NHNH2)RL-NH2; not fully specified; printed as Ac-RRHK*RLK*RRLK*RL-NH2; also: K*4,K*7,K*11: native or modified lysine (ε-amide to a linker)) [13(Leu-His)]	–	62749 RLU	12080 RLU	73505 RLU	–	61828 RLU	35356 RLU	1141	629	−150	−168	240629 RLU	77558 RLU	7639 RLU	213228 RLU	77709 RLU	6882 RLU	mean fluorescence intensity (EGFP mRNA) (Hek293 cells [1]; Palmitoleyl, 2.5 μM): 4730; mean luminescent intensity (RLuc pDNA) (HepG2 cells; Oleyl, 5 μM): 116466 RLU; mean luminescent intensity (RLuc pDNA) (HepG2 cells; Palmitoleyl, 10 μM): 71476 RLU
